Test results published in patent US9738634B2, “Heterocyclic amide compound and herbicide” (SYNGENTA PARTICIPATIONS AG, priority 2013, dated 2017).

What was measured:
Format in all cases: in vivo
barnyard grass [1] = test: Test Example 1: weedkilling efficacy, preemergent weed treatment in the submerged state; A: barnyard grass
In short: (§1)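 Emulsion diluted with water to the specified per-hectare dosage is applied onto flood water (4 cm) over alluvial soil on the sowing day, with barnyard grass, bulrush and pondweed seeded and rice (2.5-leaf) transplanted; plants grow at 25–30 °C and are rated at 3 weeks.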

bulrush [2] = test: Test Example 1: weedkilling efficacy, preemergent weed treatment in the submerged state; B: bulrush
In short: as §1

oval-leafed pondweed [3] = test: Test Example 1: weedkilling efficacy, preemergent weed treatment in the submerged state; C: oval-leafed pondweed
In short: as §1

transplanted rice = test: Test Example 1: preemergent weed treatment in the submerged state, effect on crop; a: transplanted rice
In short: as §1

barnyard grass [4] = test: Test Example 2: weedkilling efficacy, growth period weed treatment in the submerged state; A: barnyard grass
In short: (§2)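 First, alluvial soil in pots is flooded to 4 cm and mixed seed is sown. Next, plants grow in a greenhouse at 25 to 30° C until the 1-2 leaf stage. Then diluted emulsion is applied onto the water surface at the given g/ha rate, and injury is assessed after 3 weeks.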

bulrush [5] = test: Test Example 2: weedkilling efficacy, growth period weed treatment in the submerged state; B: bulrush
In short: as §2

oval-leafed pondweed [6] = test: Test Example 2: weedkilling efficacy, growth period weed treatment in the submerged state; C: oval-leafed pondweed
In short: as §2

crabgrass = test: Test Example 3: weedkilling efficacy through soil treatment; D: crabgrass; conditions: soil treatment, treatment dosage 320 g/ha
In short: (§3)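 Crop and weed responses were judged three weeks after a uniform surface spray of the water-diluted emulsion at the given g/ha rate. Seeds sat beneath about 1.5 cm of sterilized diluvial soil, and boxes stood in a greenhouse at 25 to 30° C.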

green foxtail = test: Test Example 3: weedkilling efficacy through soil treatment; E: green foxtail; conditions: soil treatment, treatment dosage 320 g/ha
In short: as §3

barnyard grass [7] = test: Test Example 3: weedkilling efficacy through soil treatment; F: barnyard grass; conditions: soil treatment, treatment dosage 320 g/ha
In short: as §3

wild oat = test: Test Example 3: weedkilling efficacy through soil treatment; G: wild oat; conditions: soil treatment, treatment dosage 320 g/ha
In short: as §3

black-grass = test: Test Example 3: weedkilling efficacy through soil treatment; H: black-grass; conditions: soil treatment, treatment dosage 320 g/ha
In short: as §3

Italian ryegrass = test: Test Example 3: weedkilling efficacy through soil treatment; I: Italian ryegrass; conditions: soil treatment, treatment dosage 320 g/ha
In short: as §3

common wind-grass = test: Test Example 3: weedkilling efficacy through soil treatment; J: common wind-grass; conditions: soil treatment, treatment dosage 320 g/ha
In short: as §3

Indian mallow = test: Test Example 3: weedkilling efficacy through soil treatment; K: Indian mallow; conditions: soil treatment, treatment dosage 320 g/ha
In short: as §3

redroot pigweed = test: Test Example 3: weedkilling efficacy through soil treatment; L: redroot pigweed; conditions: soil treatment, treatment dosage 320 g/ha
In short: as §3

fig-leafed goosefoot = test: Test Example 3: weedkilling efficacy through soil treatment; M: fig-leafed goosefoot; conditions: soil treatment, treatment dosage 320 g/ha
In short: as §3

chickweed = test: Test Example 3: weedkilling efficacy through soil treatment; N: chickweed; conditions: soil treatment, treatment dosage 320 g/ha
In short: as §3

catchweed = test: Test Example 3: weedkilling efficacy through soil treatment; O: catchweed; conditions: soil treatment, treatment dosage 320 g/ha
In short: as §3

birds-eye speedwell = test: Test Example 3: weedkilling efficacy through soil treatment; p: birds-eye speedwell; conditions: soil treatment, treatment dosage 320 g/ha
In short: as §3

directly sown rice = test: Test Example 3: soil treatment, effect on crop; b: directly sown rice; conditions: soil treatment, treatment dosage 320 g/ha
In short: as §3

corn = test: Test Example 3: soil treatment, effect on crop; c: corn; conditions: soil treatment, treatment dosage 320 g/ha
In short: as §3

soybean = test: Test Example 3: soil treatment, effect on crop; d: soybean; conditions: soil treatment, treatment dosage 320 g/ha
In short: as §3

wheat = test: Test Example 3: soil treatment, effect on crop; e: wheat; conditions: soil treatment, treatment dosage 320 g/ha
In short: as §3

beet = test: Test Example 3: soil treatment, effect on crop; f: beet; conditions: soil treatment, treatment dosage 320 g/ha
In short: as §3

rapeseed = test: Test Example 3: soil treatment, effect on crop; g: rapeseed; conditions: soil treatment, treatment dosage 320 g/ha
In short: as §3

Row | SMILES | A: barnyard grass, weed kill grade (barnyard grass [1]; treatment dosage 320 g/ha) | D: crabgrass, weedkilling efficacy grade (crabgrass) | E: green foxtail, weedkilling efficacy grade (green foxtail) | F: barnyard grass, weedkilling efficacy grade (barnyard grass [7]) | G: wild oat, weedkilling efficacy grade (wild oat) | H: black-grass, weedkilling efficacy grade (black-grass) | I: Italian ryegrass, weedkilling efficacy grade (Italian ryegrass) | J: common wind-grass, weedkilling efficacy grade (common wind-grass) | K: Indian mallow, weedkilling efficacy grade (Indian mallow) | L: redroot pigweed, weedkilling efficacy grade (redroot pigweed) | M: fig-leafed goosefoot, weedkilling efficacy grade (fig-leafed goosefoot) | N: chickweed, weedkilling efficacy grade (chickweed) | O: catchweed, weedkilling efficacy grade (catchweed) | P: birds-eye speedwell, weedkilling efficacy grade (birds-eye speedwell) | b: directly sown rice, effect on crop grade (directly sown rice) | c: corn, effect on crop grade (corn) | d: soybean, effect on crop grade (soybean) | e: wheat, effect on crop grade (wheat) | f: beet, effect on crop grade (beet) | g: rapeseed, effect on crop grade (rapeseed) | other results
1 | CC(C)(C(=O)Nc1cc(F)cc(Cl)n1)N1COCN(c2ccccc2)C1=O [A-2-14] | 5 (weed kill ratio 90% or more, (practically complete withering)) | 5 (weed kill ratio 90% or more, (practically complete withering)) | 5 (weed kill ratio 90% or more, (practically complete withering)) | 5 (weed kill ratio 90% or more, (practically complete withering)) | 5 (weed kill ratio 90% or more, (practically complete withering)) | 5 (weed kill ratio 90% or more, (practically complete withering)) | 5 (weed kill ratio 90% or more, (practically complete withering)) | 5 (weed kill ratio 90% or more, (practically complete withering)) | 5 (weed kill ratio 90% or more, (practically complete withering)) | 5 (weed kill ratio 90% or more, (practically complete withering)) | 5 (weed kill ratio 90% or more, (practically complete withering)) | 5 (weed kill ratio 90% or more, (practically complete withering)) | 5 (weed kill ratio 90% or more, (practically complete withering)) | 5 (weed kill ratio 90% or more, (practically complete withering)) | 5 (weed kill ratio 90% or more, (practically complete withering)) | 4 (weed kill ratio 70% or more, less than 90%) | 4 (weed kill ratio 70% or more, less than 90%) | 4 (weed kill ratio 70% or more, less than 90%) | 4 (weed kill ratio 70% or more, less than 90%) | 4 (weed kill ratio 70% or more, less than 90%) | B: bulrush, weed kill grade (bulrush [2]; treatment dosage 320 g/ha): 5 (weed kill ratio 90% or more, (practically complete withering)); C: oval-leafed pondweed, weed kill grade (oval-leafed pondweed [3]; treatment dosage 320 g/ha): 5 (weed kill ratio 90% or more, (practically complete withering)); a: transplanted rice, effect on crop grade (transplanted rice; treatment dosage 320 g/ha): 3 (weed kill ratio 40% or more, less than 70%); A (barnyard grass) weedkilling efficacy grade (barnyard grass [4]; treatment dosage 320 g/ha): 5 (weed kill ratio 90% or more, (practically complete withering)); B (bulrush) weedkilling efficacy grade (bulrush [5]; treatment dosage 320 g/ha): 5 (weed kill ratio 90% or more, (practically complete withering)); C (oval-leafed pondweed) weedkilling efficacy grade (oval-leafed pondweed [6]; treatment dosage 320 g/ha): 5 (weed kill ratio 90% or more, (practically complete withering))
2 | CC(C)(C(=O)Nc1cc(Cl)cc(F)n1)N1COCN(c2ccccc2)C1=O [A-2-15] | – | 5 (weed kill ratio 90% or more, (practically complete withering)) | 5 (weed kill ratio 90% or more, (practically complete withering)) | 5 (weed kill ratio 90% or more, (practically complete withering)) | 5 (weed kill ratio 90% or more, (practically complete withering)) | 5 (weed kill ratio 90% or more, (practically complete withering)) | 5 (weed kill ratio 90% or more, (practically complete withering)) | 5 (weed kill ratio 90% or more, (practically complete withering)) | 4 (weed kill ratio 70% or more, less than 90%) | 4 (weed kill ratio 70% or more, less than 90%) | 4 (weed kill ratio 70% or more, less than 90%) | 5 (weed kill ratio 90% or more, (practically complete withering)) | 5 (weed kill ratio 90% or more, (practically complete withering)) | 5 (weed kill ratio 90% or more, (practically complete withering)) | 5 (weed kill ratio 90% or more, (practically complete withering)) | 4 (weed kill ratio 70% or more, less than 90%) | 3 (weed kill ratio 40% or more, less than 70%) | 4 (weed kill ratio 70% or more, less than 90%) | 3 (weed kill ratio 40% or more, less than 70%) | 4 (weed kill ratio 70% or more, less than 90%) | A: barnyard grass, weed kill grade (barnyard grass [1]; treatment dosage 280 g/ha): 5 (weed kill ratio 90% or more, (practically complete withering)); B: bulrush, weed kill grade (bulrush [2]; treatment dosage 280 g/ha): 5 (weed kill ratio 90% or more, (practically complete withering)); C: oval-leafed pondweed, weed kill grade (oval-leafed pondweed [3]; treatment dosage 280 g/ha): 5 (weed kill ratio 90% or more, (practically complete withering)); a: transplanted rice, effect on crop grade (transplanted rice; treatment dosage 280 g/ha): 4 (weed kill ratio 70% or more, less than 90%); A (barnyard grass) weedkilling efficacy grade (barnyard grass [4]; treatment dosage 280 g/ha): 5 (weed kill ratio 90% or more, (practically complete withering)); B (bulrush) weedkilling efficacy grade (bulrush [5]; treatment dosage 280 g/ha): 5 (weed kill ratio 90% or more, (practically complete withering)); C (oval-leafed pondweed) weedkilling efficacy grade (oval-leafed pondweed [6]; treatment dosage 280 g/ha): 5 (weed kill ratio 90% or more, (practically complete withering))
3 | Cc1cc(F)nc(NC(=O)C(C)(C)N2COCN(c3ccccc3)C2=O)c1 [A-2-20] | 5 (weed kill ratio 90% or more, (practically complete withering)) | 5 (weed kill ratio 90% or more, (practically complete withering)) | 5 (weed kill ratio 90% or more, (practically complete withering)) | 5 (weed kill ratio 90% or more, (practically complete withering)) | 5 (weed kill ratio 90% or more, (practically complete withering)) | 5 (weed kill ratio 90% or more, (practically complete withering)) | 5 (weed kill ratio 90% or more, (practically complete withering)) | 5 (weed kill ratio 90% or more, (practically complete withering)) | 4 (weed kill ratio 70% or more, less than 90%) | 4 (weed kill ratio 70% or more, less than 90%) | 4 (weed kill ratio 70% or more, less than 90%) | 4 (weed kill ratio 70% or more, less than 90%) | 5 (weed kill ratio 90% or more, (practically complete withering)) | 5 (weed kill ratio 90% or more, (practically complete withering)) | 5 (weed kill ratio 90% or more, (practically complete withering)) | 1 (weed kill ratio 5% or more, less than 20%) | 3 (weed kill ratio 40% or more, less than 70%) | 3 (weed kill ratio 40% or more, less than 70%) | 4 (weed kill ratio 70% or more, less than 90%) | 4 (weed kill ratio 70% or more, less than 90%) | B: bulrush, weed kill grade (bulrush [2]; treatment dosage 320 g/ha): 5 (weed kill ratio 90% or more, (practically complete withering)); C: oval-leafed pondweed, weed kill grade (oval-leafed pondweed [3]; treatment dosage 320 g/ha): 5 (weed kill ratio 90% or more, (practically complete withering)); a: transplanted rice, effect on crop grade (transplanted rice; treatment dosage 320 g/ha): 3 (weed kill ratio 40% or more, less than 70%); A (barnyard grass) weedkilling efficacy grade (barnyard grass [4]; treatment dosage 320 g/ha): 5 (weed kill ratio 90% or more, (practically complete withering)); B (bulrush) weedkilling efficacy grade (bulrush [5]; treatment dosage 320 g/ha): 5 (weed kill ratio 90% or more, (practically complete withering)); C (oval-leafed pondweed) weedkilling efficacy grade (oval-leafed pondweed [6]; treatment dosage 320 g/ha): 5 (weed kill ratio 90% or more, (practically complete withering))
